Marks after values point to notes of the source that are not given here.
Test: Example 2 multiple rising dose inhaled delta-9-THC study: plasma pharmacokinetics
Settings: for AUC(0-t) / AUC(0-inf) / Cmax / half-life / Tmax: human, plasma; for AUC(0-t): AUC(0-8)
Protocol: A randomized, double-blind, placebo-controlled, multiple rising dose safety, tolerability, pharmacokinetic and pharmacodynamic study to assess two dose levels of inhaled delta-9-THC was conducted. Dose levels were studied in ascending order. Two consecutive groups (n=9/group) of healthy subjects were studied (Groups I and II). […] There was a lapse of at least 10 days between the groups for interim safety and pharmacokinetic analysis. Two dose levels were studied in ascending order. […] Subjects in each treatment Group (I or II) received single and multiple doses of inhaled delta-9-THC according to the following schedule:
For both dose levels, the first and the last dose of study drug was given under fasted conditions. Subjects were confined to the study site from the evening of Day −2 (Day 1 is the day of administration of the first dose of study drug) until the 120-hour blood sample following the final dose of study drug, resulting in an 18-day confinement period for subjects in Group I and a 25-day confinement period for Group II. Between the completion of Group I and the start of Group II, an interim safety and pharmacokinetic analysis was performed. Based on the results of the interim analyses, the dose level for investigation in Group II was determined.
Two MDI dosage strengths were used corresponding to the same formulations used in Example 1: one delivering 0.3 mg delta-9-THC (or placebo) per actuation and one delivering 1.2 mg delta-9-THC (or placebo) per actuation. The MDI consisted of a pressurized (via propellants) container and a metered-dose valve. The propellants provided the necessary force to expel the drug, and also acted as a solvent and diluent. The canister unit was provided within a mouthpiece (oral adapter), to expel an exact amount of drug, in the proper particle size distribution, upon each actuation. Two basic formulations containing 0.3 and 1.2 mg of delta-9-THC per 50 μL were developed with propellant 1,1,1,2 tetrafluoroethane 134a (HFA 134a), and ethanol as solvent. The formulations were made in accordance with the composition used in Example 1.
Whole blood samples were collected according to the assessment flowchart in EDTA tubes through venepuncture or indwelling catheter. Samples were immediately placed on ice and subsequently centrifuged within 30 minutes at 1,500 g for 10 minutes. Plasma was transferred into a 5 ml screw cap polypropylene tube, stoppered and stored at below minus 20° C. until transfer to the analytical laboratory for analysis. […] The measurement ranges were 0.05-30 ng/ml for delta-9-THC, 0.04-30 ng/ml for 11-OH-THC, and 0.25-10 ng/ml for THC-COOH.
For Example 2: The statistical analysis encompassed an exploratory analysis of the single and multiple dose pharmacokinetics and dose proportionality of two dose levels of inhaled delta-9-THC in healthy subjects. Descriptive statistics included number of subjects, mean, standard deviation, coefficient of variation (%) and geometric mean for all pharmacokinetic parameters.
The exploratory analysis was performed on the logarithms of the dose-normalized pharmacokinetic parameters AUC(0-inf), AUC(0-t), AUC(0-τ) and Cmax. Dose proportionality was tested both at single dose and at multiple dose (steady state) by comparing the dose groups for all pharmacokinetic parameters by an analysis of variance with dose as fixed effect.
Dose proportionality was tested by the contrast between the dose groups. For this contrast on the logarithmic scale, p-values were given. After anti-logarithmic transformation, the resultant ratios of geometric means and 90% confidence intervals were given.
Accumulation was tested by comparing the steady state values for AUC(0-τ) with the single dose values for AUC(0-τ) by a mixed model analysis of variance with dose and day (with levels single dose and steady state) as fixed effects and subject within dose as random effect.

[1] = inhaled, 1.2 mg, Arithmetic Mean (SD), 1.2 mg m.d., Day 12, Group I
[2] = inhaled, 1.2 mg, Arithmetic Mean (SD), 1.2 mg s.d., Day 1
[3] = inhaled, 1.2 mg, Geometric Mean (Range), 1.2 mg s.d., Day 1
[4] = inhaled, 3.6 mg, Arithmetic Mean (SD), 3.6 mg m.d., Day 19, Group II
[5] = inhaled, 3.6 mg, Arithmetic Mean (SD), 3.6 mg s.d., Day 1
[6] = inhaled, 3.6 mg, Geometric Mean (Range), 3.6 mg s.d., Day 1

CCCCCc1cc(O)c2c(c1)OC(C)(C)[C@@H]1CCC(C)=C[C@@H]21 [delta-9-THC, delta-9-tetrahydrocannabinol]
achievement of steady state (1.2 mg delta-9-THC three times daily): apparently reached after six days of dosing
accumulation during multiple dosing (8-hours dosing interval): no statistically significant accumulation
Ratio AUC(0-8) m.d./AUC(0-8) s.d. (Accumulation factor), Mean (Group I, 1.2 mg): 0.85
Ratio AUC(0-8) m.d./AUC(0-inf) s.d. (Linearity), Mean (Group I, 1.2 mg): 0.79
Ratio AUC(0-8) m.d./AUC(0-8) s.d. (Accumulation factor), Mean (Group II, 3.6 mg): 1.15
Ratio AUC(0-8) m.d./AUC(0-inf) s.d. (Linearity), Mean (Group II, 3.6 mg): 1.02
dose proportionality: geometric mean ratio (3.6 mg:1.2 mg) of dose-normalized AUC(0-8) (90% confidence interval) (Multiple dose): 1.10 (0.55-2.18)
dose proportionality: geometric mean ratio (3.6 mg:1.2 mg) of dose-normalized Cmax (90% confidence interval) (Multiple dose): 1.81 (0.52-6.24)
dose proportionality: geometric mean ratio (3.6 mg:1.2 mg) of dose-normalized AUC(0-8) (90% confidence interval) (Single dose): 0.77 (0.50-1.18)*
dose proportionality: geometric mean ratio (3.6 mg:1.2 mg) of dose-normalized AUC(0-inf) (90% confidence interval) (Single dose): 0.79 (0.51-1.23)
dose proportionality: geometric mean ratio (3.6 mg:1.2 mg) of dose-normalized AUC(0-t) (90% confidence interval) (Single dose): 0.81 (0.52-1.25)
dose proportionality: geometric mean ratio (3.6 mg:1.2 mg) of dose-normalized Cmax (90% confidence interval) (Single dose): 0.71 (0.38-1.37)
dose proportionality of pharmacokinetic parameters (after single or multiple dose administration): not found to deviate significantly
plasma concentration-time curve, elimination profile (both dose levels): at least a bi-phasic elimination profile
systemic absorption (both dose levels, inhaled): rapid systemic absorption
AUC(0-t) [1]: 5.74 ng·h/mL
AUC(0-t) [2]: 6.61 ng·h/mL
AUC(0-t) (inhaled, 1.2 mg, Geometric Mean (Range), 1.2 mg m.d., Day 12, Group I): 4.52 ng·h/mL
AUC(0-t) [3]: 6.1 ng·h/mL
AUC(0-inf) [2]: 7.14 ng·h/mL
AUC(0-inf) [3]: 6.55 ng·h/mL
Cmax [1]: 12.3 ng/mL
Cmax (inhaled, 1.2 mg, Arithmetic Mean (SD), 1.2 mg s.d., Day 1, plasma): 24 ng/mL
Cmax (inhaled, 1.2 mg, Geometric Mean (Range), 1.2 mg m.d. (three times daily), Day 12, Group I): 6.9 ng/mL
Cmax (inhaled, 1.2 mg, Geometric Mean (Range), 1.2 mg s.d., Day 1, plasma): 19.7 ng/mL
half-life (inhaled, 1.2 mg, terminal elimination half-life, multiple dosing): 24 h
Tmax (inhaled, 1.2 mg, tmax, Arithmetic Mean (SD), 1.2 mg m.d., Day 12, Group I): 3.6 min
Tmax (inhaled, 1.2 mg, tmax, Arithmetic Mean (SD), 1.2 mg s.d., Day 1): 2.4 min
Tmax (inhaled, 1.2 mg, tmax, median (range), 1.2 mg m.d., Day 12, Group I): 3.6 min
Tmax (inhaled, 1.2 mg, tmax, median (range), 1.2 mg s.d., Day 1): 1.8 min
half-life (inhaled, 1.2 mg, t½, Arithmetic Mean (SD), 1.2 mg m.d., Day 12, Group I): 29.1 h
half-life (inhaled, 1.2 mg, t½, Arithmetic Mean (SD), 1.2 mg s.d., Day 1): 4.02 h
half-life (inhaled, 1.2 mg, t½, Geometric Mean (Range), 1.2 mg m.d., Day 12, Group I): 25.3 h
half-life (inhaled, 1.2 mg, t½, Geometric Mean (Range), 1.2 mg s.d., Day 1): 3.39 h
AUC(0-t) [4]: 15.8 ng·h/mL
AUC(0-t) [5]: 14.7 ng·h/mL
AUC(0-t) (inhaled, 3.6 mg, Geometric Mean (Range), 3.6 mg m.d., Day 19, Group II): 14.9 ng·h/mL
AUC(0-t) [6]: 14 ng·h/mL
AUC(0-inf) [5]: 16.3 ng·h/mL
AUC(0-inf) [6]: 15.6 ng·h/mL
Cmax [4]: 40.4 ng/mL
Cmax (inhaled, 3.6 mg, Arithmetic Mean (SD), 3.6 mg s.d., Day 1, plasma): 44.7 ng/mL
Cmax (inhaled, 3.6 mg, Geometric Mean (Range), 3.6 mg m.d. (three times daily), Day 19, Group II): 37.4 ng/mL
Cmax (inhaled, 3.6 mg, Geometric Mean (Range), 3.6 mg s.d., Day 1, plasma): 42.5 ng/mL
half-life (inhaled, 3.6 mg, Terminal elimination half-lives (summary estimate), summary, best estimated after multiple dosing): ~93 h
half-life (inhaled, 3.6 mg, terminal elimination half-life, multiple dosing): 93 h
Tmax (inhaled, 3.6 mg, tmax, Arithmetic Mean (SD), 3.6 mg m.d., Day 19, Group II): 2.4 min
Tmax (inhaled, 3.6 mg, tmax, Arithmetic Mean (SD), 3.6 mg s.d., Day 1): 4.8 min
Tmax (inhaled, 3.6 mg, tmax, median (range), 3.6 mg m.d., Day 19, Group II): 1.8 min
Tmax (inhaled, 3.6 mg, tmax, median (range), 3.6 mg s.d., Day 1): 4.8 min
half-life (inhaled, 3.6 mg, t½, Arithmetic Mean (SD), 3.6 mg m.d., Day 19, Group II): 94.8 h
half-life (inhaled, 3.6 mg, t½, Arithmetic Mean (SD), 3.6 mg s.d., Day 1): 6.41 h
half-life (inhaled, 3.6 mg, t½, Geometric Mean (Range), 3.6 mg m.d., Day 19, Group II): 92.9 h
half-life (inhaled, 3.6 mg, t½, Geometric Mean (Range), 3.6 mg s.d., Day 1): 6.01 h
Tmax (inhaled, Tmax range, both dose levels, after single and multiple dose administration): 1.8 to 4.8 min
ratios of AUC(0-8) after multiple dosing versus AUC(0-inf) after single dose (linearity) (in vivo): did not deviate clearly or significantly from unity
Cmax and AUC values versus dose (single and multiple dose administration, 1.2 and 3.6 mg): Dose-related increases

Reference: patent US20070020193A1, “Dronabinol compositions and methods for using same” (priority 2005, published 2007)
